# From US10028966B2 (Avalyn Pharma Inc., priority 2014, dated 2018)
# Legend:
# elastase = conditions: unprocessed CF sputum directly treated; cited from earlier work
# [1] = tested on: relapsed/refractory multiple myeloma; conditions: cited from earlier work
# breast cancer stem cells = conditions: mice; cited from earlier work
# [2] = Pharmacokinetics and tissue distribution (lung, plasma, heart, kidney) of co-solvent formulations, intratracheal bolus aerosol; format: in vivo, Sprague-Dawley rats; conditions: pirfenidone about 4 mg/kg IT aerosol
# Method: Selected formulations were prepared for pharmacokinetic analysis following aerosol delivery to rat lung. […] Formulations prepared for this study are outlined in Table 9. […] The sample was agitated until completely dissolved. […] Filtered samples were analyzed by HPLC.
# [3] = tested on: EGFR mutation positive patients; conditions: cited from earlier work
# cancer patients = conditions: cited from earlier work
# [4] = primary metabolite; cited from earlier work
# mTOR = mTOR (Homo sapiens, UniProt P42345); conditions: cited from earlier work
# p110-γ and p110-δ = conditions: inhibits all four isoforms; cited from earlier work
# PI3K = conditions: cited from earlier work
molecule,measurement,setting,value
"O=C(O)CCCC[C@@H](S)CCS (racemic) [DHLA, dihydrolipoic acid]",increase of sol elastase activity,elastase,did not increase elastase activity
CC(C)C[C@H](NC(=O)[C@H](Cc1ccccc1)NC(=O)c1cnccn1)B(O)O [Bortezomib],patients with peripheral neuropathy,"[1]; human, in vivo",30%
same,time to peak concentrations,[1]; intravenous administration,about 30 minutes
CC[C@@H](C(=O)[C@@H](C)[C@@H](O)[C@H](C)[C@@H]1O[C@@H]([C@@H](CC)C(=O)O)CC[C@@H]1C)[C@H]1O[C@]2(C=C[C@@H](O)[C@]3(CC[C@@](C)([C@H]4CC[C@](O)(CC)[C@H](C)O4)O3)O2)[C@H](C)C[C@@H]1C [Salinomycin],"killing of breast cancer stem cells, times more effectively than paclitaxel",breast cancer stem cells,at least 100 times
O=C(O)c1ccc(=O)n(-c2ccccc2)c1,"5-carboxy metabolite, lung tissue, Mean",[2]; 0 MIN (one value for all groups),0.00 μg/gram
same,"5-carboxy metabolite, lung tissue, Mean","[2]; Group 1, 0.0333 hr",0.12 μg/gram
same,"5-carboxy metabolite, lung tissue, Mean","[2]; Group 1, 0.0667 hr",0.13 μg/gram
same,"5-carboxy metabolite, lung tissue, Mean","[2]; Group 1, 0.100 hr",0.48 μg/gram
same,"5-carboxy metabolite, lung tissue, Mean","[2]; Group 1, 0.167 hr",0.49 μg/gram
same,"5-carboxy metabolite, lung tissue, Mean","[2]; Group 1, 0.333 hr",0.96 μg/gram
same,"5-carboxy metabolite, lung tissue, Mean","[2]; Group 1, 0.667 hr",0.96 μg/gram
same,"5-carboxy metabolite, lung tissue, Mean","[2]; Group 1, 1 hr",0.73 μg/gram
same,"5-carboxy metabolite, lung tissue, Mean","[2]; Group 1, 2 hr",0.21 μg/gram
same,"5-carboxy metabolite, lung tissue, Mean","[2]; Group 1, 2.50 hr",0.10 μg/gram
same,"5-carboxy metabolite, lung tissue, Mean","[2]; Group 1, […]",0.48 μg/gram
same,"5-carboxy metabolite, lung tissue, Mean","[2]; Group 3, 0.0333 hr",0.05 μg/gram
same,"5-carboxy metabolite, lung tissue, Mean","[2]; Group 3, 0.0667 hr",0.36 μg/gram
same,"5-carboxy metabolite, lung tissue, Mean","[2]; Group 3, 0.100 hr",0.55 μg/gram
same,"5-carboxy metabolite, lung tissue, Mean","[2]; Group 3, 0.167 hr",0.86 μg/gram
same,"5-carboxy metabolite, lung tissue, Mean","[2]; Group 3, 0.333 hr",1.09 μg/gram
same,"5-carboxy metabolite, lung tissue, Mean","[2]; Group 3, 0.667 hr",0.81 μg/gram
same,"5-carboxy metabolite, lung tissue, Mean","[2]; Group 3, 1 hr",0.70 μg/gram
same,"5-carboxy metabolite, lung tissue, Mean","[2]; Group 3, 2 hr",0.32 μg/gram
same,"5-carboxy metabolite, lung tissue, Mean","[2]; Group 3, 2.50 hr",0.14 μg/gram
same,"5-carboxy metabolite, lung tissue, Mean","[2]; Group 3, […]",0.52 μg/gram
same,"5-carboxy metabolite, lung tissue, Mean","[2]; Group 5, 0.0333 hr",0.17 μg/gram
same,"5-carboxy metabolite, lung tissue, Mean","[2]; Group 5, 0.0667 hr",0.42 μg/gram
same,"5-carboxy metabolite, lung tissue, Mean","[2]; Group 5, 0.100 hr",0.35 μg/gram
same,"5-carboxy metabolite, lung tissue, Mean","[2]; Group 5, 0.167 hr",0.53 μg/gram
same,"5-carboxy metabolite, lung tissue, Mean","[2]; Group 5, 0.333 hr",1.32 μg/gram
same,"5-carboxy metabolite, lung tissue, Mean","[2]; Group 5, 0.667 hr",0.96 μg/gram
same,"5-carboxy metabolite, lung tissue, Mean","[2]; Group 5, 1 hr",0.75 μg/gram
same,"5-carboxy metabolite, lung tissue, Mean","[2]; Group 5, 2 hr",0.18 μg/gram
same,"5-carboxy metabolite, lung tissue, Mean","[2]; Group 5, 2.50 hr",0.10 μg/gram
same,"5-carboxy metabolite, lung tissue, Mean","[2]; Group 5, […]",0.45 μg/gram
same,"5-carboxy metabolite, lung tissue, Mean","[2]; Group 6, 0.0333 hr",0.17 μg/gram
same,"5-carboxy metabolite, lung tissue, Mean","[2]; Group 6, 0.0667 hr",0.43 μg/gram
same,"5-carboxy metabolite, lung tissue, Mean","[2]; Group 6, 0.100 hr",0.37 μg/gram
same,"5-carboxy metabolite, lung tissue, Mean","[2]; Group 6, 0.167 hr",0.64 μg/gram
same,"5-carboxy metabolite, lung tissue, Mean","[2]; Group 6, 0.333 hr",0.94 μg/gram
same,"5-carboxy metabolite, lung tissue, Mean","[2]; Group 6, 0.667 hr",0.92 μg/gram
same,"5-carboxy metabolite, lung tissue, Mean","[2]; Group 6, 1 hr",0.78 μg/gram
same,"5-carboxy metabolite, lung tissue, Mean","[2]; Group 6, 2 hr",0.24 μg/gram
same,"5-carboxy metabolite, lung tissue, Mean","[2]; Group 6, 2.50 hr",0.14 μg/gram
same,"5-carboxy metabolite, lung tissue, Mean","[2]; Group 6, […]",0.43 μg/gram
C#Cc1cccc(Nc2ncnc3cc(OCCOC)c(OCCOC)cc23)c1 [Erlotinib],response rate,[3],approximately 60%
N#CC1(c2ccc(NC(=O)c3cccnc3NCc3ccncc3)cc2)CCCC1 [Apatinib],complete response,"cancer patients; 65 cancer patients, Phase I/II",1.54%
same,partial response,"cancer patients; 65 cancer patients, Phase I/II",12.31%
same,progressive disease,"cancer patients; 65 cancer patients, Phase I/II",20%
same,stable disease,"cancer patients; 65 cancer patients, Phase I/II",66.15%
same,maximum tolerated dose,cancer patients; daily for 28 days,850 mg/day
DNase,increase of sol elastase activity,elastase,190%
O=C(O)c1ccc(=O)n(-c2ccccc2)c1 [5-carboxy-pirfenidone],share of urinary excretion,[4],95%
Cc1c(CN2CCN(S(C)(=O)=O)CC2)sc2c(N3CCOCC3)nc(-c3cnc(N)nc3)nc12 [GNE-477],IC50,mTOR,21 nM
Nc1nc(N)c2nc(-c3cccc(O)c3)c(-c3cccc(O)c3)nc2n1 [TG100-115],fold better potency against p110-γ and p110-δ,p110-γ and p110-δ,5-10 fold
"reduced rhTrx: stable reduced form of recombinant human thioredoxin (protein, UniProt P10599 2-105, looked up, reduced form) Thioredoxin: VKQIESKTAFQEALDAAGDKLVVVDFSATWCGPCKMIKPFFHSLSEKYSNVIFLEVDVDDCQDVASECEVKCMPTFQFFKKGQKVGEFSGANKEKLEATINELV",increase of sol elastase activity,elastase,60%
